# Experimental data reported in patent publication US20230112484A1, “COMPOSITIONS FOR CROP PROTECTION” (Agrematch Ltd., priority 2020, published 2023).
# How the values were obtained:
# Assay type in all cases: in vivo
# Amaranthus palmeri [1] = test: Soil germination (Example 1); conditions: for Amaranthus palmeri soil germination: score 0 = complete germination inhibition, 100 = no effect; for soil germination of Amaranthus palmeri, result in words: concentration not given
# Experimental: (§1) Compounds were dissolved in DMSO and then in distilled water to get 0.01-2 mg/ml solution with 1% or 2% DMSO. 1% or 2% DMSO solution in water was used as a negative control. As a positive control, 0.1 or 0.2 mg/ml oxyfluorfen (Galigan) solution was used.
# (§2) Flowerpots were filled with 30 g of soil, and 4-5 seeds were sowed in each flowerpot. Each treatment contained 3 flowerpots. Each flowerpot was sprayed with 1.5 ml of the dissolved compound. Soil was let dry for about 1 hour at room conditions, and then each flowerpot was sub-irrigated with 40 ml water and incubated under conditions provided below.
# (§3) Amaranthus palmeri was incubated at 25° C. for 8 hr in dark, followed by 16 hr at 30° C. in light. Lolium rigidum was incubated at 21° C. for 8 hr in dark, followed by 16 hr at 21° C. in light. Germination was assessed and scored after 4-7 days. Scoring scale: 0—complete germination inhibition, 100—no effect.
# Lolium rigidum = test: Soil germination (Example 1); conditions: for Lolium rigidum soil germination: score 0 = complete germination inhibition, 100 = no effect; for soil germination of Lolium rigidum, result in words: concentration not given
# Experimental: as §1, §2, §3
# Amaranthus palmeri [2] = test: Residual activity greenhouse assay; conditions: seeds sowed three weeks after pre-emergence application
# Text: Residual activity of Compound 1 and Compound 2 was examined in greenhouse assay. Three weeks after pre-emergence application, new Amaranthus palmeri seeds were sowed on the same pots and germination was followed.
# Echinochloa colonum = test: Soil germination (Example 3); conditions: 0.1 mg/ml; score 0 = complete germination inhibition, 100 = no effect; after 7 days
# Experimental: (§4) Compounds were dissolved in DMSO and then in distilled water to get 0.1 or 0.5 mg/ml solution with 2% DMSO. 2% DMSO solution in water was used as a negative control. No positive control was used in this assay. Flowerpots were filled with 30 g of soil, each treatment contained three flowerpots. Each flowerpot was sprayed with 1.5 ml of the dissolved compound. Soil was let dry for about 1 hour at room conditions, and then each flowerpot was sub-irrigated with 40 ml water and incubated at controlled growth chambers, under conditions provided on table 6. Gemination was assessed and scored after 7 days. Scoring scale: 0—complete germination inhibition, 100—no effect. [table]
# Amaranthus palmeri [3] = test: Soil germination (Example 3); conditions: 0.1 mg/ml; score 0 = complete germination inhibition, 100 = no effect; after 7 days
# Experimental: as §4
# Triticum vulgare = test: Soil germination (Example 3); conditions: 0.1 mg/ml; score 0 = complete germination inhibition, 100 = no effect; after 7 days
# Experimental: as §4
# Zea mays = test: Soil germination (Example 3); conditions: 0.1 mg/ml; score 0 = complete germination inhibition, 100 = no effect; after 7 days
# Experimental: as §4
# Setaria adhaerens = test: Soil germination (Example 3); conditions: 0.1 mg/ml; score 0 = complete germination inhibition, 100 = no effect; after 7 days
# Experimental: as §4
# Abutilon theophrasti = test: Soil germination (Example 3); conditions: 0.1 mg/ml; score 0 = complete germination inhibition, 100 = no effect; after 7 days
# Experimental: as §4
# Amaranthus palmeri [4] = test: Post-emergence application (Example 5); conditions: score 0 = complete phytotoxic effect, 100 = no effect
# Experimental: For post-emergence application, compounds were dissolved in DMSO and then in distilled water to get 0.05-2 mg/ml solution with 2% DMSO. Break-Thru surfactant was added to a final concentration of 0.05%. Negative control—an aqueous solution of 2% DMSO and 0.05% Break-Thru. Positive control—2 mg/ml Glyphosate (Roundup). For post-emergence application, 1.5 ml of each compound solution were sprayed on the foliage of Amaranthus palmeri, which were 10 days old at the day of the experiment. Each treatment contained 3 pots. Plants were let dry for about 15 minutes at room conditions, and then incubated at controlled growth chambers. Phytotoxicity was assessed and scored 4-10 days after applications. Scoring scale: 0—complete phytotoxic effect, 100—no effect.
# Amaranthus palmeri [5] = test: Pre-emergence application (Example 5); conditions: score 0 = complete germination inhibition, 100 = no effect
# Experimental: For pre-emergence application, compounds were dissolved in DMSO and then in distilled water to get 0.1-2 mg/ml solution with 2% DMSO. 2% DMSO solution in water was used as a negative control. As a positive control, 0.2 mg/ml oxyfluorfen ([…]) solution was used. For pre-emergence application, flowerpots were filled with 30 g of soil, and 4-5 Amaranthus palmeri seeds were sowed in each flowerpot. Each treatment contained 3 flowerpots. Each flowerpot was sprayed with 1.5 ml of the dissolved compound. Soil was let dry for about 1 hour at room conditions, and then each flowerpot was sub-irrigated with 40 ml water and incubated under conditions provided below. Amaranthus palmeri was incubated at 25° C. for 8 hr in dark, followed by 16 hr at 30° C. in light. Germination was assessed and scored after 4-7 days. Scoring scale: 0-complete germination inhibition, 100-no effect.
# Setaria viridis = test: Herbicidal effect against Setaria viridis (Example 5); conditions: for Herbicidal effect against Setaria viridis, result in words: in vivo
# [6] = 2 mg/ml, 4-10 days after application
structure (smiles),measurement,setting,value
CC(Cl)/C=C/C(=O)N(CC(C)C)CC(C)C (stereo not drawn) [Compound 1],Amaranthus palmeri soil germination,Amaranthus palmeri [1]; 0.01 mg/ml,80
same,Amaranthus palmeri soil germination,Amaranthus palmeri [1]; 0.025 mg/ml,30
same,Amaranthus palmeri soil germination,Amaranthus palmeri [1]; 0.05 mg/ml,0
same,Amaranthus palmeri soil germination,Amaranthus palmeri [1]; 0.1 mg/ml,0
same,Amaranthus palmeri soil germination,Amaranthus palmeri [1]; 0.25 mg/ml,0
same,"soil germination of Amaranthus palmeri, result in words",Amaranthus palmeri [1],active
same,Lolium rigidum soil germination,Lolium rigidum; 0.5 mg/ml,60
same,"soil germination of Lolium rigidum, result in words",Lolium rigidum,active
same,Residual activity: germination of newly sowed Amaranthus palmeri seeds,Amaranthus palmeri [2],germination was observed
same,"Herbicidal activity, soil germination, Echinochloa colonum",Echinochloa colonum,100
same,"Herbicidal activity, soil germination, Amaranthus palmeri",Amaranthus palmeri [3],0
same,"Herbicidal activity, soil germination, Triticum vulgare",Triticum vulgare,100
same,"Herbicidal activity, soil germination, Zea mays",Zea mays,100
same,"Herbicidal activity, soil germination, Setaria adhaerens",Setaria adhaerens,60
same,"Herbicidal activity, soil germination, Abutilon theophrasti",Abutilon theophrasti,100
CC(F)/C=C/C(=O)N(Cc1ccc(Cl)nc1)CC(C)C (stereo not drawn) [Compound 3],Amaranthus palmeri soil germination,Amaranthus palmeri [1]; 0.1 mg/ml,30
Cc1ccsc1CN(CC(C)C)C(=O)/C=C/C(C)Cl (stereo not drawn) [Compound 6],Amaranthus palmeri soil germination,Amaranthus palmeri [1]; 0.1 mg/ml,100
same,Amaranthus palmeri soil germination,Amaranthus palmeri [1]; 0.25 mg/ml,100
same,Amaranthus palmeri soil germination,Amaranthus palmeri [1]; 0.5 mg/ml,100
same,Amaranthus palmeri soil germination,Amaranthus palmeri [1]; 1 mg/ml,70
same,Amaranthus palmeri soil germination,"Amaranthus palmeri [1]; 2 mg/ml, after 4-7 days",0
same,"soil germination of Amaranthus palmeri, result in words",Amaranthus palmeri [1],active
same,Lolium rigidum soil germination,Lolium rigidum; 2 mg/ml,30
same,"soil germination of Lolium rigidum, result in words",Lolium rigidum,active
CC#CCN(CC(C)C)C(=O)/C=C/C(C)Cl (stereo not drawn) [Compound 7],Post-emergence Amaranthus palmeri herbicidal activity,Amaranthus palmeri [4]; [6],40
same,Pre-emergence Amaranthus palmeri herbicidal activity,Amaranthus palmeri [5]; 0.1 mg/ml,10
same,Pre-emergence Amaranthus palmeri herbicidal activity,Amaranthus palmeri [5]; 0.25 mg/ml,5
same,Pre-emergence Amaranthus palmeri herbicidal activity,"Amaranthus palmeri [5]; 2 mg/ml, after 4-7 days",0
CCC#CCN(CC(C)C)C(=O)/C=C/C(C)Cl (stereo not drawn) [Compound 8],Post-emergence Amaranthus palmeri herbicidal activity,Amaranthus palmeri [4]; [6],30
same,Pre-emergence Amaranthus palmeri herbicidal activity,Amaranthus palmeri [5]; 0.1 mg/ml,100
same,Pre-emergence Amaranthus palmeri herbicidal activity,Amaranthus palmeri [5]; 0.25 mg/ml,40
same,Pre-emergence Amaranthus palmeri herbicidal activity,"Amaranthus palmeri [5]; 2 mg/ml, after 4-7 days",0
CCOCC#CCN(CC(C)C)C(=O)/C=C/C(C)Cl (stereo not drawn) [Compound 9],Post-emergence Amaranthus palmeri herbicidal activity,Amaranthus palmeri [4]; [6],80
same,Pre-emergence Amaranthus palmeri herbicidal activity,Amaranthus palmeri [5]; 0.1 mg/ml,60
same,Pre-emergence Amaranthus palmeri herbicidal activity,Amaranthus palmeri [5]; 0.25 mg/ml,50
same,Pre-emergence Amaranthus palmeri herbicidal activity,"Amaranthus palmeri [5]; 2 mg/ml, after 4-7 days",0
C#CCOCC#CCN(CC(C)C)C(=O)/C=C/C(C)Cl (stereo not drawn) [Compound 10],Post-emergence Amaranthus palmeri herbicidal activity,Amaranthus palmeri [4]; [6],70
same,Pre-emergence Amaranthus palmeri herbicidal activity,Amaranthus palmeri [5]; 0.1 mg/ml,100
same,Pre-emergence Amaranthus palmeri herbicidal activity,Amaranthus palmeri [5]; 0.25 mg/ml,5
same,Pre-emergence Amaranthus palmeri herbicidal activity,"Amaranthus palmeri [5]; 2 mg/ml, after 4-7 days",0
CC(Cl)/C=C/C(=O)N(CC(C)C)CC(F)(F)F (stereo not drawn) [Compound 11],Post-emergence Amaranthus palmeri herbicidal activity,Amaranthus palmeri [4]; [6],60
same,Pre-emergence Amaranthus palmeri herbicidal activity,Amaranthus palmeri [5]; 0.1 mg/ml,15
same,Pre-emergence Amaranthus palmeri herbicidal activity,Amaranthus palmeri [5]; 0.25 mg/ml,5
same,Pre-emergence Amaranthus palmeri herbicidal activity,"Amaranthus palmeri [5]; 2 mg/ml, after 4-7 days",0
CC(Cl)/C=C/C(=O)N(CCC(C)C)Cc1ccc(Cl)nc1 (stereo not drawn) [Compound 12],Post-emergence Amaranthus palmeri herbicidal activity,Amaranthus palmeri [4]; 0.05 mg/ml,0
same,Post-emergence Amaranthus palmeri herbicidal activity,Amaranthus palmeri [4]; 0.075 mg/ml,0
same,Pre-emergence Amaranthus palmeri herbicidal activity,Amaranthus palmeri [5]; 0.1 mg/ml,20
same,Pre-emergence Amaranthus palmeri herbicidal activity,Amaranthus palmeri [5]; 0.25 mg/ml,5
same,"Herbicidal effect against Setaria viridis, result in words",Setaria viridis,moderate herbicidal effect
CC(Cl)/C=C/C(=O)N(Cc1ccc(C#N)nc1)CC(C)C (stereo not drawn) [Compound 13],Post-emergence Amaranthus palmeri herbicidal activity,Amaranthus palmeri [4]; 0.05 mg/ml,10
same,Post-emergence Amaranthus palmeri herbicidal activity,Amaranthus palmeri [4]; 0.075 mg/ml,0
same,Pre-emergence Amaranthus palmeri herbicidal activity,Amaranthus palmeri [5]; 0.1 mg/ml,30
same,Pre-emergence Amaranthus palmeri herbicidal activity,Amaranthus palmeri [5]; 0.25 mg/ml,0
same,"Herbicidal effect against Setaria viridis, result in words",Setaria viridis,moderate herbicidal effect
CC(Cl)/C=C/C(=O)N(CCC(C)C)Cc1ccc(Cl)s1 (stereo not drawn) [Compound 14],Post-emergence Amaranthus palmeri herbicidal activity,Amaranthus palmeri [4]; 0.25 mg/ml,20
same,Post-emergence Amaranthus palmeri herbicidal activity,Amaranthus palmeri [4]; 0.5 mg/ml,20
same,Pre-emergence Amaranthus palmeri herbicidal activity,Amaranthus palmeri [5]; 0.1 mg/ml,20
same,Pre-emergence Amaranthus palmeri herbicidal activity,Amaranthus palmeri [5]; 0.25 mg/ml,5
same,"Herbicidal effect against Setaria viridis, result in words",Setaria viridis,moderate herbicidal effect
CC(Cl)/C=C/C(=O)N(CCC(C)C)Cc1cnc(Cl)s1 (stereo not drawn) [Compound 15],Post-emergence Amaranthus palmeri herbicidal activity,Amaranthus palmeri [4]; 0.25 mg/ml,5
same,Post-emergence Amaranthus palmeri herbicidal activity,Amaranthus palmeri [4]; 0.5 mg/ml,0
same,Pre-emergence Amaranthus palmeri herbicidal activity,Amaranthus palmeri [5]; 0.1 mg/ml,20
same,Pre-emergence Amaranthus palmeri herbicidal activity,Amaranthus palmeri [5]; 0.25 mg/ml,0
same,"Herbicidal effect against Setaria viridis, result in words",Setaria viridis,moderate herbicidal effect
CC(Cl)/C=C/C(=O)N(CCC(C)C)CCC(C)C (stereo not drawn) [Compound 16],Post-emergence Amaranthus palmeri herbicidal activity,Amaranthus palmeri [4]; 0.25 mg/ml,50
same,Post-emergence Amaranthus palmeri herbicidal activity,Amaranthus palmeri [4]; 0.5 mg/ml,10
same,Pre-emergence Amaranthus palmeri herbicidal activity,Amaranthus palmeri [5]; 0.1 mg/ml,10
same,Pre-emergence Amaranthus palmeri herbicidal activity,Amaranthus palmeri [5]; 0.25 mg/ml,0
same,Inhibition of Setaria viridis,Setaria viridis; applying to the area under cultivation,more than 30%
same,"Herbicidal effect against Setaria viridis, result in words",Setaria viridis,very good herbicidal effect
COc1ccc(CN(CC(C)C)C(=O)/C=C/[C@@H](C)Cl)cc1 [reference compound],Amaranthus palmeri soil germination,Amaranthus palmeri [1]; 0.1 mg/ml,substantially less active
same,Lolium rigidum soil germination,Lolium rigidum; 0.5 mg/ml,unable to reduce soil germination
